Columns and labels:
[1] = biological target: T1, vinylthioether-linked HUWE1^HECT-Ub complex (Homo sapiens, UniProt Q7Z6Z7); test: Isothermal titration calorimetry (ITC) with HUWE1^HECT~Ub proxy; format: binding; conditions: 25 °C
T1 construct: The preparation of the vinylthioether-linked HUWE1^HECT-Ub complex was also previously described; made in house; host or cells: bacteria (components)
Method: (§1) ITC was performed with an ITC200 calorimeter (MicroCal) at 25 °C. The proteins were dialyzed into 20 mM HEPES (pH 7.5), 150 mM NaCl, and 1 mM β-mercaptoethanol (β-ME) overnight. 600 μM HUWE1^HECT or HUWE1^HECT-Ub were applied to the cell and a 10-fold molar excess of BI8626 to the syringe (and vice versa). The reference cell was filled with buffer. Titration experiments included 1 injection of 1.5 μL, followed by 15 injections of 2.4 μL in 3-s intervals, with 150-s spacings between individual injections. The reference power was set to 12 μcal s^−1 and the stirring speed to 270 rpm. To control for instrument functionality, 5 mM CaCl2 were titrated into 0.4 mM EDTA in 10 mM MES (pH 5.6). Data were plotted with OriginPro v.2020b (OriginLab).

[2] = biological target: T2, HUWE1^HECT (Homo sapiens, UniProt Q7Z6Z7); test: Isothermal titration calorimetry (ITC) with HUWE1^HECT; format: binding; conditions: 25 °C
T2 construct: the isolated HECT domain of HUWE1 (HUWE1^HECT); made in house
T2 sequence (Q7Z6Z7 4038-4374 limits assumed): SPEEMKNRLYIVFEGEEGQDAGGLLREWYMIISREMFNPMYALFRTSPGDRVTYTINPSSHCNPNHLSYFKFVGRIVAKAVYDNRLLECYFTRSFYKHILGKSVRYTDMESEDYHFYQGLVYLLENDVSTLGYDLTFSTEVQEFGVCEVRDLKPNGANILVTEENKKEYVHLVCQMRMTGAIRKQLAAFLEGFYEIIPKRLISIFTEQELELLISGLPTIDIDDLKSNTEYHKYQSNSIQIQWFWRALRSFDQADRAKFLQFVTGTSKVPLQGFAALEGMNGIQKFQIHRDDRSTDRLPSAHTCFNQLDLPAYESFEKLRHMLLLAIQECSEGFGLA
Method: as §1

[3] = test system: HEK293T cells; test: Quantitative total proteomics; format: cell-based, human; conditions: 15 μM, 24 h vs DMSO
Method: (§2) For total proteomics and Ub remnant profiling (diGly proteomics), HEK293T cells were treated with 15 μM BI8626 (in DMSO) or an equivalent volume of DMSO for 24 h, washed with ice-cold 1 x DPBS, and lysed in 9 M urea, 50 mM Tris (pH 8.0) and 150 mM NaCl, supplemented with protease inhibitor (Roche) and 50 µM PR-619, and processed essentially as described. Briefly, the cells were lysed by sonication, non-solubilized material removed by centrifugation, and the protein concentration was determined with a Pierce BCA Protein Assay Kit. 5 mg was used for further MS processing and four biological replicates per condition.
(§3) After reduction with 5 mM DTT and alkylation with 10 mM chloroacetamide, followed by quenching with 5 mM DTT, lysates were digested with 5 ng/μl LysC protease (Wako) at RT for 1 h. Subsequent digestion of peptides with trypsin (Promega) at a 1: 200 enzyme: peptide ratio was performed. Desalted and lyophilized peptides were resuspended in 1.5 ml IAP buffer (50 mM MOPS (pH 7.2), 10 mM Na2HPO4, 50 mM NaCl) and centrifuged to remove insoluble material. […]
(§4) Data collection was controlled by Tune v.4.0.4084.22 (Thermo Scientific) and Xcalibur v.2.4 (Thermo Fisher Scientific). Raw data files from quadruplicate samples were analyzed using MaxQuant v.1.6.0.1 (Max Planck Institute of Biochemistry)[56],[57]. […]

[4] = test system: HEK293T cells; test: Ub remnant profiling (diGly proteomics); format: cell-based, human; conditions: 15 μM, 24 h vs DMSO
Method: as §2, §3, §4

For `NCc1cccc(CNc2ncnc3c(N4CCN(Cc5ccccc5)CC4)ncnc23)c1` [BI8626], the “Interaction with the HUWE1^HECT~Ub proxy by ITC” value [1] was “No binding was detected”, the “Interaction with HUWE1^HECT by ITC” value [2] was “No binding was detected” and the Total proteome changes [3] was “widespread compound-induced changes”. For the same molecule, the “Protein ubiquitination changes (diGly proteomics)” value [4] was “predominantly reductions in protein ubiquitination”.

— publication PMC12405493, “Selective ubiquitination of drug-like small molecules by the ubiquitin ligase HUWE1” (Nature Communications, 2025)
